The text below walks through data of patent US8877757B2, “Pyrazine derivatives and use as PI3K inhibitors” (Merck Serono SA, priority 2005, dated 2014).

The test system of assay [1] is Akt phosphorylation in B cells. As to the kind of experiment: IgM-induced Akt phosphorylation in B cell (human PBMC, flow cytometry). Type of assay: cell-based. The conditions noted are these: 5 min, CD19+ IgM+ B cells in human PBMC, anti IgM for 5 minutes, read-out: IC50, inhibition of IgM-induced Akt Phosphorylation. As for the experimental part: Human PBMC were prepared from a Buffy coat (Geneve Hospital) after a Ficoll gradient (FICOLL-PAQUE Plus PHARMACIA ref: 17-1440-03).
Cell concentration was adjusted to 10^6 cells per ml in RPMI (GIBCO Ref: 72400-21) without serum. Before stimulation, 90 μl of PBMC suspension was incubated with 10 μl of diluted compound in a 96 well round bottom plate for 20 minutes at 37° C.
For B cell activation, 30 μl of Fab′2 Goat anti IgM (Jackson Immuno-research) at 10 μg/ml was added to each well. After 5 minutes, cell activation was stopped with 4% paraformaldehyde (10 minutes at room temperature).
Fixed PBMC were then treated for 20 minutes with 0.15% Triton, washed twice with PBS and permeabilized with 50% methanol for 15 minutes.
PBMC were washed twice in PBS, resuspended in: PBS-4% FCS and incubated with anti P-Akt (1/100 dilution) for one hour at room temperature.
After one wash, PBMC were further stained for 30 minutes with a mixture of anti-CD19-PE (BD Biosciences), anti-IgM-FITC (BD Biosciences) and goat anti rabbit IgG-Alexa 647 (Molecular probe).
After washing, PBMC (Peripheral Blood Mononuclear Cells) were analysed on a FACSCalibur instrument (BD Biosciences) equipped with a 633 helium-neon laser, or stored at 4° C. for further analysis. 510^3 B cells events were gathered per sample in the CD19 positive region.
For the analysis, a threshold was applied on P-Akt histogram of CD 19+ IgM+ lymphocytes cells from the non-stimulated samples and the percentage of cells above this threshold was determined for each sample.
(In general: Flow cytometry measures light scatter and fluorescence of single cells or particles in a stream.)

In assay [2] the test system is PKB/Akt phosphorylation in mast cells. As to the kind of experiment: SCF-induced PKB/Akt phosphorylation in mast cells. As to conditions: Mast cell, 0.25 h; mast cells derived from mouse bone marrow, 20 ng/mL SCF for 15 minutes; read-out: IC50, inhibition of SCF-induced Akt Phosphorylation. Type of assay: cell-based, mice. On the procedure:
Protocol: Primary bone marrow cells were isolated from 4-8 weeks old wild type mice and derived to mast cells by incubation with medium containing 20 ng/mL of stem cell factor (SCF) (PeproTech, Switzerland) and 20 ng/mL of IL-3 (PeproTech, Switzerland) for at least 4 weeks. Confirmation of the expression of mast cell specific surface markers was done by FACS analysis using antibodies against c-kit (cKit-PE mouse antibody; Pharmingen). Cells were maintained in culture in the presence of SCF and IL-3. To induce PKB/Akt phosphorylation, mast cells were resuspended at 2.5×10^6 cells/mL and starved in medium containing no SCF or IL-3 for 24 h. After preincubation with compounds or 1% DMSO for 20 minutes, cells were activated with 20 ng/mL of SCF for 15 minutes at 37° C., fixed in 1.5% paraformaldehyde for 20 minutes and permeabilised with 0.2% Triton X-100 for 10 minutes, at room temperature. PKB/Akt phosphorylation was visualized using phospho-Ser-473 specific Akt antibodies (Cell Signaling) and standard FACS protocols.

In the next assay the test system is Female Balb/c mice. The assay can be described thus: Passive cutaneous anaphylaxis (PCA). Type of assay: in vivo. The conditions noted are these: 30 mg/kg oral route, 2 hours before challenge. As for the experimental part: Female Balb/c mice (Elevage Janvier) (8 week old) were intradermally injected by anti-DNP IgE (50 ng in 20 μl, id, 2 sites of injection) on their shaved backs. Twenty four hours later they received an intravenous injection of DNP-human serum albumin (50 μg/mouse) and Evans blue (25 mg/kg) by retroorbital injection. Thirty minutes later, the animals were sacrificed. The skin of the back was removed. The extravasated dye (punch diameter: 5 mm) was extracted from 2 punches by 0.4 ml of formamide and was quantified by fluorescence (E1: 585 nm, E2: 660 nm).
Inhibitors are administered by oral route at the dose of 30 mg/kg 2 hours before the challenge of DNP-human serum albumin and Evans blue.

Assay [3] has as its target Human recombinant GST-PI3δ (Homo sapiens (Human), UniProt O00329). The assay can be described thus: PI3K induced-lipid phosphorylation scintillation proximity assay (neomycin-coated SPA beads). It counts as biochemical. The text has this:
The efficacy of compounds of the invention in inhibiting the PI3K induced-lipid phosphorylation may be tested in the following binding assay.
The assay combines the scintillation proximity assay technology (SPA, Amersham) with the capacity of neomycin (a polycationic antibiotic) to bind phospholipids with high affinity and specificity. The Scintillation Proximity Assay is based on the properties of weakly emitting isotopes (such as ^3H, ^125I, ^33P). Coating SPA beads with neomycin allows the detection of phosphorylated lipid substrates after incubation with recombinant PI3K and radioactive ATP in the same well, by capturing the radioactive phospholipids to the SPA beads through their specific binding to neomycin.
To a 96 wells MTP containing 10 μl of the test compound of Formula (I) (solubilized in 10% DMSO; to yield a concentration of 100, 25, 5.0, 1.25, 0.312, 0.078, 0.0195, 0.00488, 0.00122 and 0.0003 μM of the test compound), the following assay components are added: 1) 10 μl of lipid micelles 2) 20 μl of Kinase buffer ([^33P]γ-ATP 162 μM/300 nCi, MgCl2 2.5 mM, DTT 2.5 mM, Na3VO4 25 μM in Hepes 40 mM, pH 7.4) and 3) 10 μl (100 ng) of Human recombinant GST-PI3δ (in Hepes 40 mM, pH 7.4, ethylenglycol 4%). After incubation at room temperature for 120 minutes, with gentle agitation, the reaction is stopped by addition of 200 μl of a solution containing 250 μg of neomycin-coated PVT SPA beads, ATP 60 mM and EDTA 6.2 mM in PBS. The assay is further incubated at room temperature for 60 minutes with gentle agitation to allow binding of phospholipids to neomycin-SPA beads. After precipitation of the neomycin-coated PVT SPA beads for 5 minutes at 1500×g, radioactive PtdIns(3)P is quantified by scintillation counting in a Wallac MicroBeta™ plate counter.
The values indicated in Table I below refer to the IC50 (μM) with respect to PI3K, i.e. the amount necessary to achieve 50% inhibition of said target. Said values show a considerable inhibitory potency of pyrazine compounds with regard to PI3K.

Another assay concerns Class I PI3-kinases. As to conditions: Fruman et al., 1998; read-out: IC50 against each of the various Class I PI3-kinases; cited from earlier work.

Sequence of Human recombinant GST-PI3δ (O00329 whole entry): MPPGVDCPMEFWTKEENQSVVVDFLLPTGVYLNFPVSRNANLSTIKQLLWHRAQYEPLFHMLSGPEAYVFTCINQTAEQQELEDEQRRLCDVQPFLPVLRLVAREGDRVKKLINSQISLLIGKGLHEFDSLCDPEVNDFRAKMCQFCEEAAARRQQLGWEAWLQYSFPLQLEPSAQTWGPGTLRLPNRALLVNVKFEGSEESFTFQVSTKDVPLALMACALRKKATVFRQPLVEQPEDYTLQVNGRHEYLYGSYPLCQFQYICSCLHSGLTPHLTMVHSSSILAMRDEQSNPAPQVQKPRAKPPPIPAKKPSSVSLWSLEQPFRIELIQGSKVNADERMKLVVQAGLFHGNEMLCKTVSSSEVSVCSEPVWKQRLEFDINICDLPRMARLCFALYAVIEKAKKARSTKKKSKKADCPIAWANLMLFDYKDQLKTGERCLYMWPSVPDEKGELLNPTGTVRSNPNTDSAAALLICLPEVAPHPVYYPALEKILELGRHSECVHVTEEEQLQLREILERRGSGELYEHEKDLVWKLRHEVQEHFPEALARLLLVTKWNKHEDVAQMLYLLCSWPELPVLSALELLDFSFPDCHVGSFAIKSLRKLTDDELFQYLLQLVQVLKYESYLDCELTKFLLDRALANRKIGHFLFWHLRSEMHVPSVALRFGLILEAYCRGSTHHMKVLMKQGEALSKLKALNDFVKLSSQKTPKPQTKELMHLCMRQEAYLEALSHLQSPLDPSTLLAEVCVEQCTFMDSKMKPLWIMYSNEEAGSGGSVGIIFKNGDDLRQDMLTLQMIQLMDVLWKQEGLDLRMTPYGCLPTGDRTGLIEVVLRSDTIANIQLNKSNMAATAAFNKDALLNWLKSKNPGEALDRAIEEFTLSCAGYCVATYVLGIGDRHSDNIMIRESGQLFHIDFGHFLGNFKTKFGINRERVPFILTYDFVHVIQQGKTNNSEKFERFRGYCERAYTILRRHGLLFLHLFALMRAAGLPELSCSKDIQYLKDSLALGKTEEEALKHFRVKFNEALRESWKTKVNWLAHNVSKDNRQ

As for `COc1ccc(OC)c(Nc2nc3ccccc3nc2NS(=O)(=O)c2cccnc2)c1` [Example 65, N-{3-[(2,5-dimethoxyphenyl)amino]quinoxalin-2-yl}pyridine-3-sulfonamide], the half-inhibitory concentration (IC50) in assay [1] turned out to be 21 nM; in assay [2] it was 1190 nM; in assay [3] it was 56 nM. Besides, in the assay on Female Balb/c mice, the “inhibition of vascular permeability” value is listed as 84%.

As for `COc1ccc(OC)c(Nc2nc3ccccc3nc2NS(=O)(=O)c2cn(C)cn2)c1` [Example 13, N-{3-[(2,5-dimethoxyphenyl)amino]quinoxalin-2-yl}-1-methyl-1H-imidazole-4-sulfonamide], the values for the half-inhibitory concentration (IC50) in assay [1] and in assay [3] were 30 nM and 80 nM, respectively.

As to `COc1ccc(OC)c(Nc2nc3ncccc3nc2NS(=O)(=O)c2ccccc2)c1` [Example 86, N-{3-[(2,5-dimethoxyphenyl)amino]pyrido[2,3-b]pyrazin-2-yl}benzene sulfonamide], the IC50 in assay [3] was determined as 73 nM.

For `COc1cc(Nc2nc3ccccc3nc2NS(=O)(=O)c2cccc(C(=O)NCCCN(C)C)c2)cc(OC)c1` [Example 144, 3-[({3-[(3,5-dimethoxyphenyl)amino]quinoxalin-2-yl}amino)sulfonyl]-N-[3-(dimethylamino)propyl]benzamide], in assay [3], the IC50 came out at 30 nM.

As for `COC[C@H]1OC(=O)c2coc3c2[C@@]1(C)C1=C(C3=O)[C@@H]2CCC(=O)[C@@]2(C)C[C@H]1OC(C)=O` [Wortmannin], in the assay on Class I PI3-kinases, the IC50 was 1 to 10 nM.

Turning to `COc1cc(Nc2nc3ccccc3nc2NS(=O)(=O)c2ccc(CN(C)C)cc2)cc(OC)c1` [Example 138, N-{3-[(3,5-dimethoxyphenyl)amino]quinoxalin-2-yl}-4-[(dimethylamino)methyl]benzenesulfonamide], the 50% inhibitory concentration (IC50) in assay [1] was 16 nM; in assay [2] it was 180 nM; in assay [3], 27 nM.

In the case of `COc1ccc(OC)c(Nc2nc3ccccc3nc2NS(=O)(=O)c2cccc(C#N)c2)c1` [Example 11, 3-Cyano-N-{3-[(2,5-dimethoxyphenyl)amino]quinoxalin-2-yl}benzene sulfonamide], the concentration for half-maximal inhibition (IC50) in assay [3] was determined as 430 nM.

As to `COc1ccc(OC)c(Nc2nc3ccccc3nc2NS(=O)(=O)c2ccc3c(c2)sc(=O)n3C)c1` [Example 29, N-{3-[(2,5-dimethoxyphenyl)amino]quinoxalin-2-yl}-3-methyl-2-oxo-2,3-dihydro-1,3-benzothiazole-6-sulfonamide], the IC50 in assay [3] stood at 240 nM.

By IC50 is commonly meant the concentration that inhibits the measured activity by half.
